According to ChEMBL document CHEMBL1136854, “Synthesis and pharmacological evaluation of aminopyrimidine series of 5-HT1A partial agonists” (Bioorg Med Chem Lett, 2009):

Test: in vitro
Details: human, liver microsomes

| Compound | CLint scaled [mL/min/kg] | CLint scaled (CL) [mL/min/kg] |
| --- | --- | --- |
| c1cc(C2CCCN(CCc3cscn3)C2)nc(NC2CC2)n1 (centres undefined) | 15 |  |
| Cc1[nH]c2ccc(Cl)cc2c1CCN1CCCC(c2ccnc(NC3CC3)n2)C1 (centres undefined) |  | 135 |
| Fc1cccc2c(CCN3CCCC(c4ccnc(NC5CC5)n4)C3)c[nH]c12 (centres undefined) |  | 28 |
| O=C1CC2(CCCC2)CC(=O)N1CCCCN1CCN(c2ncccn2)CC1 [BUSPIRONE] |  | 148 |
